Measured values as given in US20240180872A1, “METHODS AND COMPOUNDS OF CANNABIDIOL, MELATONIN AND AKBA FOR TREATING PANCREATIC CANCER” (priority 2021, published 2024).

Test system: PANC-1 cells
Assay: Nude mice orthotopic pancreatic tumor model
Assay type: in vivo, Athymic Nude-Foxn1nu mice
Conditions: after 30 days of treatment, GEM 50 mg/kg, MLT 400 mg/kg, CBD 10 mg/kg
Source text: Species and strain: Athymic Nude-Foxn1nu mice.
PANC-1 cells were thawed and cultured in DMEM (Dulbecco's Modified Eagle Medium) +2% L-glutamine +10% FBS (Fetal Bovine Serum), Penicillin/Streptomycin and maintain the cell culture in 100 mm Petri dish (Sarstedt, Germany).
A period of acclimation (at least 5 days) was allowed to mice before tumor inoculation. Before the inoculum, PANC-1 cells were detached with trypsin, counted with trypan blue and for each inoculum, 1×10^6 cells were suspended in 20 ul of PBS. Mice (n=20) were anesthetized with isoflurane (induction at 4% and maintenance at 2%) and cell solutions (20 μL, 1×10^6 cells) were orthotopically injected into the tail of the pancreas exploiting the echo-guided procedure. The 20 animals inoculated with tumor cells were divided in 4 groups (Table 6) when tumor size reaches a volume of approximately 20-30 mm^3 (tumor size was determined by ultrasound imaging analysis).
The animals were inoculated with 1×10^6 PANC-1 cells with VevoLAZR-X system by using echo-guided injection method. All animals were treated every three days for 30 days starting when tumor reached the volume of approximately 30 mm^3 (around 10-15 days from the inoculum). […]
Tumor volume was analyzed by using Vevo Lab software (Fujifilm Visualsonics).

SMILES: Nc1ccn([C@@H]2O[C@H](CO)[C@@H](O)C2(F)F)c(=O)n1 [GEM, Gemcitabine]
- tumor volumes (IP every three days, Vehicle 630,8): 111,1
- effect on tumor volume (IP): high effect
